Data as given in patent US20200231614A1, “PSMA TARGETED RADIOHALOGENATED UREAS FOR CANCER RADIOTHERAPY” (THE JOHNS HOPKINS UNIVERSITY, priority 2015, published 2020).
Like-named read-outs stand apart in the source and are kept apart here.

Tested on: PSMA + PC-3 PiP and PSMA − PC-3 flu tumor xenografts
Conditions: for Biodistribution: PC-3 PiP: PSMA+ tumor xenograft; for Biodistribution: PC-3 flu: PSMA− tumor xenograft
[1] = 21 H post-injection, comparative Table 13

O=C(O)CC[C@H](NC(=O)N[C@@H](CCC(=O)NCCc1ccc([131I])cc1)C(=O)O)C(=O)O [[^131I]HS-549]
Biodistribution: Lrg Int. (1 H post-injection): 0.52 ± 0.12 % ID/g
Biodistribution: Sm int. (1 H post-injection): 1.98 ± 0.30 % ID/g
Biodistribution: bladder (1 H post-injection): 4.34 ± 2.16 % ID/g
Biodistribution: blood (1 H post-injection): 5.90 ± 1.05 % ID/g
Biodistribution: heart (1 H post-injection): 2.30 ± 0.63 % ID/g
Biodistribution: kidney (1 H post-injection): 106 ± 18.9 % ID/g
Biodistribution: liver (1 H post-injection): 21.2 ± 4.14 % ID/g
Biodistribution: lung (1 H post-injection): 4.60 ± 1.09 % ID/g
Biodistribution: muscle (1 H post-injection): 0.86 ± 0.26 % ID/g
Biodistribution: spleen (1 H post-injection): 6.76 ± 3.42 % ID/g
Biodistribution: stomach (1 H post-injection): 0.92 ± 0.20 % ID/g
Biodistribution: thyroid (1 H post-injection): 1.17 ± 0.43 % ID/g
Biodistribution: Lrg Int. (2 H post-injection): 1.32 ± 0.25 % ID/g
Biodistribution: Sm int. (2 H post-injection): 2.42 ± 0.40 % ID/g
Biodistribution: bladder (2 H post-injection): 2.34 ± 1.04 % ID/g
Biodistribution: blood (2 H post-injection): 2.92 ± 0.32 % ID/g
Biodistribution: heart (2 H post-injection): 1.14 ± 0.18 % ID/g
Biodistribution: kidney (2 H post-injection): 96.6 ± 39.1 % ID/g
Biodistribution: liver (2 H post-injection): 26.0 ± 3.09 % ID/g
Biodistribution: lung (2 H post-injection): 2.73 ± 0.66 % ID/g
Biodistribution: muscle (2 H post-injection): 0.46 ± 0.12 % ID/g
Biodistribution: spleen (2 H post-injection): 2.71 ± 0.85 % ID/g
Biodistribution: stomach (2 H post-injection): 0.47 ± 0.17 % ID/g
Biodistribution: thyroid (2 H post-injection): 0.69 ± 0.29 % ID/g
tumor/kidney ratio (2 H post-injection): 0.8
Biodistribution: Lrg Int. (21 H post-injection): 0.63 ± 0.39 % ID/g
Biodistribution: Sm int. (21 H post-injection): 0.37 ± 0.06 % ID/g
Biodistribution: bladder (21 H post-injection): 0.65 ± 0.20 % ID/g
Biodistribution: blood (21 H post-injection): 1.39 ± 0.35 % ID/g
Biodistribution: heart (21 H post-injection): 0.41 ± 0.09 % ID/g
Biodistribution: kidney (21 H post-injection): 3.13 ± 1.65 % ID/g
Biodistribution: liver (21 H post-injection): 1.86 ± 0.51 % ID/g
Biodistribution: lung (21 H post-injection): 0.87 ± 0.27 % ID/g
Biodistribution: muscle (21 H post-injection): 0.16 ± 0.04 % ID/g
Biodistribution: spleen (21 H post-injection): 0.29 ± 0.12 % ID/g
Biodistribution: stomach (21 H post-injection): 0.14 ± 0.04 % ID/g
Biodistribution: thyroid (21 H post-injection): 0.36 ± 0.05 % ID/g
tumor/kidney ratio (21 H post-injection): 7.2
Non-target organ uptake: spleen [1]: 0.3 % D/g
Non-target organ uptake: stomach [1]: 0.14 % D/g
Non-target organ uptake: thyroid [1]: 0.36 % D/g
Biodistribution: PC-3 PiP (1 H post-injection): 78.1 ± 19.1 % ID/g
Biodistribution: PC-3 PiP (2 H post-injection): 74.7 ± 13.1 % ID/g
Biodistribution: PC-3 PiP (21 H post-injection): 22.6 ± 22.1 % ID/g
Biodistribution: PC-3 flu (1 H post-injection): 2.21 ± 0.53 % ID/g
Biodistribution: PC-3 flu (2 H post-injection): 1.51 ± 0.30 % ID/g
Biodistribution: PC-3 flu (21 H post-injection): 0.44 ± 0.18 % ID/g
PSMA positive tumor uptake (in words) (biodistributions of Tables 2, 3, 9, 10): demonstrated PSMA positive tumor uptake
Clearance from the kidneys (in words) (compared with [^131I]YC-I-27 and [^211At]YC-I-27): clear from the kidneys giving higher tumor to kidney ratios
